The structures appear in SMILES notation. In brackets after ≈: the same amount, converted by molar mass. A value given as a limit tells only on which side of the number the result lay.

Type in all cases: functional
One assay concerns Pseudomonas fluorescens. Put plainly: Antibacterial activity against Pseudomonas fluorescens ATCC 13525 after 24 hrs by MTT method. Particulars: ATCC 13525, 24 h. (In general: Formazan colour is commonly taken as a measure of viable cells.)
Another assay concerns Escherichia coli. Put plainly: Antibacterial activity against Escherichia coli ATCC 35218 after 24 hrs by MTT method. Particulars: ATCC 35218, 24 h.
In a further assay the test system is Aspergillus niger. Put plainly: Antifungal activity against Aspergillus niger ATCC 16404 after 48 hrs by MTT method. The note with it: ATCC 16404, 48 h.
In the next assay the test system is Staphylococcus aureus. Put plainly: Antibacterial activity against Staphylococcus aureus ATCC 6538 after 24 hrs by MTT method. The note with it: ATCC 6538, 24 h.
The next assay relates to Candida albicans. As to the kind of experiment: Antifungal activity against Candida albicans ATCC 10231 after 48 hrs by MTT method. The note with it: ATCC 10231, 48 h.
The test system of another assay is Bacillus subtilis. Put plainly: Antibacterial activity against Bacillus subtilis ATCC 6633 after 24 hrs by MTT method. Particulars: ATCC 6633, 24 h.
Another assay has as its system Trichophyton rubrum. Put plainly: Antifungal activity against Trichophyton rubrum ATCC 10218 after 48 hrs by MTT method. The note with it: ATCC 10218, 48 h.

By MIC is commonly meant the lowest concentration found to suppress growth. Regarding `CCOC(=O)/C(=C\Nc1ccc(Br)cc1)c1ccc(Cl)cc1`, the minimal inhibitory concentration (MIC) in the assay with Pseudomonas fluorescens, against Escherichia coli, with Aspergillus niger, against Staphylococcus aureus, with Candida albicans and in the assay on Bacillus subtilis was above 50 µg/mL throughout.
As for `CCOC(=O)/C(=C\Nc1cc(F)cc(F)c1)c1ccc(Cl)cc1`, the MIC with Pseudomonas fluorescens, against Escherichia coli, against Aspergillus niger, against Staphylococcus aureus, with Candida albicans and against Bacillus subtilis was above 50 µg/mL in each case.
As for `CCOC(=O)/C(=C\Nc1cc(OC)cc(OC)c1)c1ccc(OC)cc1`, the MIC in the assay on Pseudomonas fluorescens is 30 µg/mL (≈ 83.9 µM); with Escherichia coli, above 50 µg/mL; with Aspergillus niger, above 50 µg/mL; against Staphylococcus aureus, 43.5 µg/mL (≈ 122 µM); with Candida albicans it was above 50 µg/mL; in the assay on Bacillus subtilis it was above 50 µg/mL.
Take `CCOC(=O)/C(=C\Nc1ccccc1Cl)c1ccc(Cl)cc1`: the MIC against Pseudomonas fluorescens is above 50 µg/mL; in the assay on Escherichia coli, 42.5 µg/mL (≈ 126 µM); with Aspergillus niger, above 50 µg/mL; against Staphylococcus aureus, above 50 µg/mL; with Candida albicans, above 50 µg/mL; against Bacillus subtilis it was above 50 µg/mL.
Consider `CCOC(=O)/C(=C\Nc1cc(Cl)cc(Cl)c1)c1ccc(OC)cc1`, for which the MIC was 33.8 µg/mL (≈ 92.3 µM) in the assay on Pseudomonas fluorescens; above 50 µg/mL against Escherichia coli; above 50 µg/mL in the assay on Aspergillus niger; above 50 µg/mL in the assay on Staphylococcus aureus; above 50 µg/mL against Candida albicans; above 50 µg/mL against Bacillus subtilis.
For `CCOC(=O)/C(=C/Nc1cc(Cl)cc(Cl)c1)c1ccc(OC)cc1`, the minimal inhibitory concentration (MIC) was 27.8 µg/mL (≈ 75.9 µM) against Pseudomonas fluorescens; 42.2 µg/mL (≈ 115 µM) in the assay with Escherichia coli; above 50 µg/mL against Aspergillus niger; 20.2 µg/mL (≈ 55.2 µM) against Staphylococcus aureus; above 50 µg/mL in the assay on Candida albicans; 42.2 µg/mL (≈ 115 µM) against Bacillus subtilis.
For `CCOC(=O)/C(=C\Nc1ccc(O)cc1)c1ccc(OC)cc1`, the minimal inhibitory concentration (MIC) with Pseudomonas fluorescens was above 50 µg/mL; with Escherichia coli, above 50 µg/mL; in the assay on Aspergillus niger, above 50 µg/mL; in the assay on Staphylococcus aureus, 7.9 µg/mL (≈ 25.2 µM); against Candida albicans it was above 50 µg/mL; in the assay on Bacillus subtilis it was above 50 µg/mL.
In the case of `CCOC(=O)/C(=C/Nc1ccc(Br)cc1)c1ccc(Cl)cc1`, the minimal inhibitory concentration (MIC) in the assay on Pseudomonas fluorescens, in the assay with Escherichia coli, in the assay with Aspergillus niger, against Staphylococcus aureus, in the assay with Candida albicans and against Bacillus subtilis was above 50 µg/mL each time.
Turning to `CCOC(=O)/C(=C/Nc1cc(Br)c(OC)c(Br)c1)c1ccc(OC)cc1`, the minimal inhibitory concentration (MIC) in the assay with Pseudomonas fluorescens was 33 µg/mL (≈ 68 µM); in the assay with Escherichia coli, above 50 µg/mL; with Aspergillus niger it was above 50 µg/mL; against Staphylococcus aureus, above 50 µg/mL; against Candida albicans, above 50 µg/mL; with Bacillus subtilis it was above 50 µg/mL.
With `CCOC(=O)/C(=C/Nc1ccccc1Cl)c1ccc(Cl)cc1`, the MIC in the assay with Pseudomonas fluorescens was 35.3 µg/mL (≈ 105 µM); with Escherichia coli it was 38.8 µg/mL (≈ 115 µM); in the assay with Aspergillus niger it was above 50 µg/mL; in the assay with Staphylococcus aureus, above 50 µg/mL; in the assay with Candida albicans it was above 50 µg/mL; against Bacillus subtilis it was 43.8 µg/mL (≈ 130 µM).
`CCOC(=O)/C(=C/Nc1cc(F)cc(F)c1)c1ccc(OC)cc1`: the MIC against Pseudomonas fluorescens is 31.5 µg/mL (≈ 94.5 µM); against Escherichia coli it was above 50 µg/mL; against Aspergillus niger, above 50 µg/mL; against Staphylococcus aureus, 22.8 µg/mL (≈ 68.4 µM); in the assay with Candida albicans, above 50 µg/mL; in the assay on Bacillus subtilis it was above 50 µg/mL.
Take `CCOC(=O)/C(=C\Nc1cc(Cl)cc(Cl)c1)c1ccc(Cl)cc1`: the minimum inhibitory concentration (MIC) in the assay with Pseudomonas fluorescens, against Escherichia coli, with Aspergillus niger, against Staphylococcus aureus, with Candida albicans and against Bacillus subtilis was above 50 µg/mL each time.
On to `CCOC(=O)/C(=C/Nc1cc(OC)cc(OC)c1)c1ccc(OC)cc1`, for which the MIC in the assay on Pseudomonas fluorescens was 25.2 µg/mL (≈ 70.5 µM); against Escherichia coli it was 41.5 µg/mL (≈ 116 µM); in the assay on Aspergillus niger, above 50 µg/mL; in the assay with Staphylococcus aureus, 15.8 µg/mL (≈ 44.2 µM); in the assay on Candida albicans, above 50 µg/mL; with Bacillus subtilis, above 50 µg/mL.
Regarding `CCOC(=O)/C(=C/Nc1cc(F)cc(F)c1)c1ccc(Cl)cc1`, the MIC is 31.5 µg/mL (≈ 93.3 µM) against Pseudomonas fluorescens; above 13.5 µg/mL in the assay with Escherichia coli; above 50 µg/mL with Aspergillus niger; 1.9 µg/mL (≈ 5.63 µM) with Staphylococcus aureus; above 50 µg/mL against Candida albicans; 48.2 µg/mL (≈ 143 µM) against Bacillus subtilis.
On to `CCOC(=O)/C(=C/Nc1ccc(C)cc1)c1ccc(Cl)cc1`, for which the MIC was above 50 µg/mL against Pseudomonas fluorescens; above 50 µg/mL in the assay with Escherichia coli; 0.9 µg/mL (≈ 2.85 µM) against Staphylococcus aureus; above 50 µg/mL with Candida albicans; above 50 µg/mL with Bacillus subtilis.
As for `CCOC(=O)/C(=C/Nc1cc(Cl)cc(Cl)c1)c1ccc(Cl)cc1`, the MIC against Pseudomonas fluorescens was 25.7 µg/mL (≈ 69.3 µM); with Escherichia coli it was above 50 µg/mL; with Aspergillus niger, above 50 µg/mL; against Staphylococcus aureus it was 1.1 µg/mL (≈ 2.97 µM); against Candida albicans, above 50 µg/mL; in the assay on Bacillus subtilis, above 50 µg/mL.
Consider `CCOC(=O)/C(=C\Nc1cc(Br)c(OC)c(Br)c1)c1ccc(OC)cc1`, for which the MIC with Pseudomonas fluorescens, against Escherichia coli, against Aspergillus niger, with Trichophyton rubrum, in the assay with Staphylococcus aureus and in the assay with Candida albicans was above 50 µg/mL in each case. The compound also gave an MIC against Bacillus subtilis above 50 µg/mL.
Take `NC[C@H]1O[C@H](O[C@H]2[C@H](O)[C@@H](O[C@H]3O[C@H](CO)[C@@H](O)[C@H](N)[C@H]3O)[C@H](N)C[C@@H]2N)[C@H](O)[C@@H](O)[C@@H]1O` [KANAMYCIN]: the MIC in the assay with Pseudomonas fluorescens worked out at 3.9 µg/mL (≈ 8.05 µM); against Escherichia coli, 3.9 µg/mL (≈ 8.05 µM); in the assay with Staphylococcus aureus, 1 µg/mL (≈ 2.06 µM); against Bacillus subtilis it was 0.39 µg/mL (≈ 0.805 µM).
`CCOC(=O)/C(=C/Nc1ccc(Cl)cc1)c1ccc(Cl)cc1`: the MIC is 29.5 µg/mL (≈ 87.7 µM) with Pseudomonas fluorescens; 42.5 µg/mL (≈ 126 µM) in the assay on Escherichia coli; above 50 µg/mL against Aspergillus niger; above 50 µg/mL against Staphylococcus aureus; above 50 µg/mL in the assay with Candida albicans; 42 µg/mL (≈ 125 µM) in the assay on Bacillus subtilis.
On to `CCOC(=O)/C(=C\Nc1ccc(Cl)cc1)c1ccc(Cl)cc1`, for which the minimal inhibitory concentration (MIC) in the assay on Pseudomonas fluorescens is 32.2 µg/mL (≈ 95.8 µM); in the assay with Escherichia coli, above 50 µg/mL; with Aspergillus niger it was above 50 µg/mL; in the assay on Staphylococcus aureus it was above 50 µg/mL; in the assay with Candida albicans, above 50 µg/mL; with Bacillus subtilis, above 50 µg/mL.
Turning to `CCOC(=O)/C(=C\Nc1cc(F)cc(F)c1)c1ccc(OC)cc1`, the MIC with Pseudomonas fluorescens, with Escherichia coli, in the assay on Aspergillus niger, in the assay on Staphylococcus aureus, in the assay with Candida albicans and against Bacillus subtilis was above 50 µg/mL throughout.
For the compound `CCOC(=O)/C(=C\Nc1ccc(C)cc1)c1ccc(Cl)cc1`, the MIC in the assay on Pseudomonas fluorescens, with Escherichia coli, against Aspergillus niger, in the assay on Staphylococcus aureus, in the assay with Candida albicans and with Bacillus subtilis was above 50 µg/mL in each case.
As for `CCOC(=O)/C(=C/Nc1ccc(Br)cc1)c1ccc(OC)cc1`, the MIC is 31.7 µg/mL (≈ 84.3 µM) in the assay on Pseudomonas fluorescens; above 50 µg/mL against Escherichia coli; above 50 µg/mL in the assay with Aspergillus niger; above 50 µg/mL against Staphylococcus aureus; above 50 µg/mL in the assay with Candida albicans; above 50 µg/mL against Bacillus subtilis.
As for `CCOC(=O)/C(=C\Nc1ccc(Br)cc1)c1ccc(OC)cc1`, the MIC in the assay on Pseudomonas fluorescens, against Escherichia coli, in the assay on Aspergillus niger, with Staphylococcus aureus, in the assay on Candida albicans and in the assay with Bacillus subtilis was above 50 µg/mL in each case.
`CCOC(=O)/C(=C/Nc1ccc(O)cc1)c1ccc(OC)cc1`: the MIC in the assay with Pseudomonas fluorescens is above 50 µg/mL; against Escherichia coli, above 50 µg/mL; in the assay on Aspergillus niger, above 50 µg/mL; in the assay on Staphylococcus aureus it was 3.8 µg/mL (≈ 12.1 µM); in the assay on Candida albicans it was above 50 µg/mL; in the assay on Bacillus subtilis, above 50 µg/mL.
